From patent US10479814B2, “Adenosine receptor activation reagent and the uses of thereof” (Zhejiang Subtropical Crops Research Institute, priority 2014, dated 2019)
“Also recorded” adds a separate entry of the source.

How the values were obtained:
Type in all cases: in vivo
[1] = system: rat middle cerebral artery distal obstruction cerebral ischemia model; experiment: dMCAO cerebral ischemia: TUNEL detection of brain cortex apoptosis
Procedure: Using rat middle cerebral artery distal obstruction cerebral ischemia model. (1) according to rat weight, 10% chloral hydrate (3 ml/kg) was peritoneally injected to anaesthetize. (2) the rat lie on right side and fixed, 1 cm skin incision was cut at connection of inner canthus with external canal, fascia was isolated, muscle tissue, the skull was exposed; (3) a small amount of normal saline was sucked with cotton ball to wipe the skull to ac clear view; (4) fascia was isolated under operating microscope, and the skull was exposed, a hole with diameter of 2 mm circular was drilled at a sute 1/3 of spine; (5) the excess bone debris was washed by a small amount of normal saline, the meninge was push aside, and the middle cerebral artery MCA was exposed; (6) the rat lie in supine position and fixed, an incision was made along middle of throat, and arteria carotis communis CCA on both sides were isolate, pass through with a surgical suture, not ligated temporarily; (7) the MCA was found under operating microscope, burned by a monopolar coagulator, then wash and colled with normal saline; (8) immediately after coagulation, the arteria carotis communis on both sides was ligated, and blocked for 60 min; (9) the wound on head was stitched, after 1 hour the arteria carotis communis on both sides was […], and the skin was stitched, thus the modeling was complete. […]

[2] = system: mouse sleep induced by pentobarbital sodium; experiment: sleep induced by threshold dose of pentobarbital sodium
Procedure: Male ICR mice were randomly divided into four groups, respectively control group, positivediazepam (1 mg/kg) group, HEA (25 mg/kg) group and DPCPX+HEA (2 mg/kg+25 mg/kg) group. […]
Regarding the mouse righting reflex disappear for 1 min within 15 min as the hypnagogic criterion, sleep latency and sleep duration were recorded for the mice in each group.

[3] = system: mouse kidney ischemia reperfusion; experiment: kidney ischemia reperfusion: kidney function test (Scr, BUN); settings: for serum BUN level / serum Scr level: 24 h after ischemia reperfusion, vs IR group, ip pretreatment, HEA 5, 7.5, 10 mg/kg, DPCPX 1 mg/kg, DPCPX 1 mg/kg+HEA 7.5 mg/kg
Procedure: Male C57BL/6 mice 20-25 g, after one week of adaptive feeding to the animals, were randomly divided into eight groups: sham-operation group, IR group, HEA 5 mg/kg group, HEA 7 mg/kg group, HEA 10 mg/kg group, DPCPX (1 mg/kg) group, DPCPX (1 mg/kg)+HEA (5 mg/kg) group and DPCPX (1 mg/kg)+HEA (7.5 mg/kg) group. The mouse was weighed before operation, then peritoneally injected with pentobarbital sodium 50 mg/kg to anaesthetize the mouse, abdomen was opened by ventromedial incision, blunt dissection and the kidney pedicle was sufficiently exposed, renal ischemia was induced by clapping two side kidney pedicle with non-invasive bulldog clamp, the color of kidney change from bright red to purple black immediately, determination method of success of the experiment model can refer to the methods in literature 7 and 8. At time of 30 min of ischemia the bulldog clamp was loosened, the perfuse was restored, the color of kidney changed gradually from dark red to bright red, showing re perfusion was successful. The wound was stitched. The animals were freely fed water and food. In the sham-operation group, the mice only received operation of abdomen open, kidney pedicle and abdomen suture. The kidney IR mode were made for the mice in the remaining groups. In each drug group, before 15 minute of ischemia, the drug with corresponding concentration was speritoneally injected, in drug combination group, 15 minutes before ischemia, the drugs were given simultaneously. At 24 hours after Reperfussion, the mouse was again anaesthetized, obtaining the venous blood. Using full-automatic biochemical analysis systems (Dimension Xpand plus, from Siemens AG), the Scr (serum creatinine) and BUN (blood urea nitrogen) levels were detected respectively by chrysolepic acid rate method and enzymatic rate.

[4] = system: ICAM-1 mRNA in mouse renal cortex; experiment: kidney ischemia reperfusion: real time quantitative PCR of ICAM-1; settings: vs IR group; HEA 5, 7.5, 10 mg/kg; DPCPX 1 mg/kg; DPCPX 1 mg/kg+HEA
Procedure: Male C57BL/6 mice 20-25 g, after one week of adaptive feeding to the animals, were randomly divided into eight groups: sham-operation group, IR group, HEA 5 mg/kg group, HEA 7 mg/kg group, HEA 10 mg/kg group, DPCPX (1 mg/kg) group, DPCPX (1 mg/kg)+HEA (5 mg/kg) group and DPCPX (1 mg/kg)+HEA (7.5 mg/kg) group. […]
The MPO analysis was conducted according to the specification in the kit. 9.2.6 Real time quantitative PCR analysis of gene expression of ICAM-1, TNF-α and IL-1β; the sequence of primer used in RT-PCR reaction system is as follow:
PCR amplification reaction system: IQ SYBR Green Super mix 12.5 μL, Forward primer (10 μmo/L) 1 μL, Reverse primer (10 μmol/L) 1 μL, cDNA (water was added to dilute to same level) 10.5 μL. […] The statistics and calculation of experiment results was automatically conducted fluorescence quantitative PCR analyzing software BIO-RAD CFX Manager. Target gene mRNA expression level was calculated by 2-ΔΔCt method, and standardized using the GAPDH mRNA in corresponding specimen a standard.

Structure (SMILES)	effect of DPCPX on brain protective effect of HEA (TUNEL) ([1]; DPCPX 1 mg/kg ip + HEA 7.5 mg/kg ip)	effect of adenosine receptor antagonist on hypnosis effect of the HEA ([2]; DPCPX+HEA 2 mg/kg+25 mg/kg)	serum BUN level [3]	serum Scr level [3]	ICAM-1 mRNA expression in renal cortex [4]	apoptosis rate of cerebral cortex infarction ischemic penumbra (TUNEL) ([1]; dMCAO rat, HEA 7.5 mg/kg ip, vs model group)	sleep time induced by threshold dose of pentobarbital sodium ([2]; HEA 25 mg/kg, sc, pentobarbital sodium 50 mg/kg)	sleep latency ([2]; HEA 25 mg/kg, sc, pentobarbital sodium 50 mg/kg, vs control group)	protective effect to mouse kidney ischemia reperfusion impairment ([3]; by serum Scr and BUN level and kidney histopathological change)
CCCn1c(=O)c2[nH]c(C3CCCC3)nc2n(CCC)c1=O [DPCPX, reference compound]	blocking brain protective effect of the HAE	hypnosis effect of the HEA is significantly inhibited	significantly increase	significantly increase	not statistically significant	–	–	–	–
OCCNc1ncnc2c1ncn2[C@@H]1O[C@H](CO)[C@@H](O)[C@H]1O [HEA, N(6)-(2-hydroxyethyl)-adenosine]	–	–	significantly reduce	significantly reduce	significantly reduce the high expression	significantly reduced; also recorded: significantly reduce the apoptosis rate of rat cerebral cortex infarction ischemic penumbra	extended sleep time of the mice induced by threshold dose of pentobarbital sodium to a certain degree; also recorded: extends mouse sleep time induced by threshold dose of pentobarbital sodium to a certain degree	no statistical difference in sleep latency; also recorded: no significant effect on sleep latency	has protective effect to mouse kidney ischemia reperfusion impairment
